Test systems include ACHN; BT-549; COLO 205; DU-145; EKVX; HT-29; MDA-MB-231; MDA-MB-435; MOLT-4; NCI-H226; NCI-H460; NCI/ADR-RES; OVCAR-3; OVCAR-5; SK-OV-3; SN12C; SNB-19; SR; T47D; UO-31.
What all share (assay): growth of human tumour cells (NCI), 48 h

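96-well plates; 48 h exposure; 5 concentrations. Endpoints by linear interpolation between flanking doses. Not reached: highest tested concentration assigned. GI50 = concentration required for 50% inhibition of growth.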 Activity calls are given as the source filed them. Rule as the data show it: active = GI50 up to about 1.1 µM and inactive = higher. Bounds are passed on as bounds.

On to `O=[N+]([O-])c1cccc2nc3ccccc3c(NCCCN3CCCCC3)c12`, for which the GI50 is 0.0139 µM (active) in the assay on ACHN; 0.0286 µM (active) in the assay on BT-549; < 0.0107 µM (active) in the assay on COLO 205; < 0.01 µM (active) with DU-145; < 0.01 µM (active) in the assay on EKVX; < 0.01 µM (active) with HT-29. The GI50 in the assay on MDA-MB-231 was 0.016 µM (active); in the assay with MDA-MB-435, 0.0106 µM (active); with MOLT-4 it was < 0.01 µM (active); in the assay on NCI-H226, 0.0169 µM (active); in the assay with NCI-H460 it was < 0.01 µM (active); in the assay with NCI/ADR-RES, 0.418 µM (active). In addition, the GI50 with OVCAR-3 was < 0.0126 µM (active); with OVCAR-5, 0.0208 µM (active); in the assay on SK-OV-3, 0.028 µM (active); with SN12C, < 0.0105 µM (active); with SNB-19 it was 0.0233 µM (active); in the assay on SR it was < 0.01 µM (active). The GI50 in the assay on T47D was 0.0179 µM (active); in the assay with UO-31, 0.0237 µM (active).

In the case of `CSc1ncc2c(n1)-c1ccccc1OC2N1CCOCC1` (stereo not given), the GI50 in the assay on ACHN is 80.9 µM (inactive); in the assay on BT-549, 49.5 µM (inactive); with COLO 205, > 100 µM (inactive); in the assay with DU-145, > 100 µM (inactive); with EKVX it was 76 µM (inactive); in the assay on HT-29, 90.4 µM (inactive). For the same compound, the GI50 in the assay with MDA-MB-231 is 83.9 µM (inactive); in the assay on MDA-MB-435, > 100 µM (inactive); in the assay with MOLT-4 it was 43.3 µM (inactive); in the assay with NCI-H226, 85.7 µM (inactive); in the assay on NCI-H460 it was 41.5 µM (inactive); in the assay with NCI/ADR-RES, 57.1 µM (inactive). For the same compound, the GI50 is 56.2 µM (inactive) in the assay on OVCAR-3; > 100 µM (inactive) with OVCAR-5; > 100 µM (inactive) with SK-OV-3; 50 µM (inactive) in the assay on SN12C; 68.2 µM (inactive) in the assay on SNB-19; 64.9 µM (inactive) in the assay on SR. Also, the GI50 in the assay with T47D is 24.1 µM (inactive); with UO-31, 42.4 µM (inactive).

Take `COc1ccc(C2=C(N)c3ncccc3C2=O)cc1`: the GI50 was > 10 µM (inactive) in the assay on ACHN; > 100 µM (inactive) in the assay on BT-549; 72.6 µM (inactive) with COLO 205; > 100 µM (inactive) in the assay on DU-145; 45 µM (inactive) in the assay with EKVX; > 100 µM (inactive) in the assay on HT-29. The GI50 in the assay on MDA-MB-231, in the assay with MDA-MB-435, with MOLT-4, in the assay with NCI-H226, in the assay with NCI-H460 and in the assay with NCI/ADR-RES was > 100 µM (inactive) in each case. In addition, the GI50 with OVCAR-3 was 91.2 µM (inactive); in the assay with OVCAR-5, > 100 µM (inactive); in the assay with SK-OV-3, > 100 µM (inactive); in the assay on SN12C, > 100 µM (inactive); in the assay on SNB-19, > 100 µM (inactive); with SR, 69.7 µM (inactive). In addition, the GI50 in the assay on T47D and in the assay with UO-31 was > 100 µM (inactive) throughout.

Regarding `Cc1ccc2nc(C(=O)O)c(=O)[nH]c2c1`, the GI50 with ACHN, with BT-549, in the assay with COLO 205, in the assay on DU-145, in the assay with EKVX and in the assay on HT-29 was > 100 µM (inactive) in each case. The GI50 in the assay on MDA-MB-231, in the assay with MDA-MB-435, in the assay on MOLT-4, in the assay with NCI-H226, with NCI-H460 and in the assay on NCI/ADR-RES was > 100 µM (inactive) each time. Also, the GI50 in the assay on OVCAR-3, in the assay on OVCAR-5, with SK-OV-3, in the assay on SN12C, in the assay on SNB-19 and in the assay with SR was > 100 µM (inactive) each time. In addition, the GI50 in the assay on T47D and in the assay on UO-31 was > 100 µM (inactive) each time.

For `CCOC(=O)c1cnccc1CC1(C#N)c2ccccc2C=CN1C(=O)c1ccccc1` (stereo not given), the GI50 in the assay with ACHN is 39.4 µM (inactive); in the assay on BT-549, 51.6 µM (inactive); in the assay on COLO 205, 28.2 µM (inactive); with DU-145, 35.6 µM (inactive); with EKVX, 36.5 µM (inactive); with HT-29, 12.3 µM (inactive). The GI50 in the assay with MDA-MB-231 is 25.5 µM (inactive); in the assay with MDA-MB-435 it was 35.6 µM (inactive); in the assay with MOLT-4, 15.5 µM (inactive); in the assay with NCI-H226, 43.9 µM (inactive); in the assay on NCI-H460, 23.4 µM (inactive); in the assay on NCI/ADR-RES, 27.7 µM (inactive). For the same compound, the GI50 was 31.6 µM (inactive) in the assay with OVCAR-3; 80.2 µM (inactive) in the assay on OVCAR-5; 26.1 µM (inactive) with SK-OV-3; 29 µM (inactive) in the assay on SN12C; 70 µM (inactive) in the assay with SNB-19; 26.8 µM (inactive) in the assay with SR. Besides, the GI50 with T47D was 24.4 µM (inactive); with UO-31, 27.2 µM (inactive).

With `C/C(=N\NC(=S)N1CCCCC1)c1nc2cccnc2[nH]1`, the GI50 is 3.95 µM (inactive) in the assay with ACHN; 4.3 µM (inactive) in the assay with BT-549; 4.51 µM (inactive) in the assay with COLO 205; 14.7 µM (inactive) in the assay on DU-145; 5.3 µM (inactive) with EKVX; 4.3 µM (inactive) with HT-29. Further, the GI50 in the assay on MDA-MB-231 is 3.81 µM (inactive); in the assay with MDA-MB-435, 15.1 µM (inactive); with MOLT-4, 3.41 µM (inactive); in the assay on NCI-H226, 8.53 µM (inactive); in the assay on NCI-H460, 4.03 µM (inactive); in the assay on NCI/ADR-RES it was 3.83 µM (inactive). Moreover, the GI50 is 5.15 µM (inactive) in the assay with OVCAR-3; 9.66 µM (inactive) with OVCAR-5; 41.6 µM (inactive) in the assay with SK-OV-3; 19.7 µM (inactive) in the assay with SN12C; 15.7 µM (inactive) in the assay on SNB-19; 3.64 µM (inactive) with SR. Moreover, the results for the GI50 with T47D and in the assay with UO-31 were 5.08 µM (inactive) and 4.24 µM (inactive), respectively.

(Values after ChEMBL document CHEMBL1201862, “PubChem BioAssay data set” (2004).)
